# Laboratory results from ChEMBL document CHEMBL3396964, “SAH derived potent and selective EZH2 inhibitors” (Bioorg Med Chem Lett, 2015).
# Key:
# [1] = biological target: T1, Histone-lysine N-methyltransferase SUV39H1 (Homo sapiens, UniProt O43463); test: Inhibition of SUV39H1 (unknown origin) by HMT assay
# T1 sequence (O43463 whole entry): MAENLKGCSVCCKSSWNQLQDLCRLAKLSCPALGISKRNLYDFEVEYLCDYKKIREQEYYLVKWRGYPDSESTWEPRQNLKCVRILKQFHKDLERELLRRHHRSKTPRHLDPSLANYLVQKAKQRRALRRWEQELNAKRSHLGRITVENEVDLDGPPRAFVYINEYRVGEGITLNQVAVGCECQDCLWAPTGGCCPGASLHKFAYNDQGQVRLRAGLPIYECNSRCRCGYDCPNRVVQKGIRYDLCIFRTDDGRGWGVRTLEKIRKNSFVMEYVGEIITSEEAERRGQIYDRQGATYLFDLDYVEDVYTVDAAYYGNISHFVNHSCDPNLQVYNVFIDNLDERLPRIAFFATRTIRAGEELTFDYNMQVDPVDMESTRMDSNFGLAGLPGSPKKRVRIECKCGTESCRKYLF
# [2] = biological target: Histone-lysine N-methyltransferase EZH2 (Homo sapiens, UniProt O75530+Q09028+Q15022+Q15910); test: Inhibition of N-terminally FLAG-tagged wild type EZH2 in EZH2/SUZ12/EED/RbAp48 complex (unknown origin) expressed in baculovirus infected in SF9 cells assessed as inhibition of methylation of nucleosomes at H3K27 by scintillation counting in presence of [3H]SAM
# [3] = biological target: T2, Histone-lysine N-methyltransferase EZH1 (Homo sapiens, UniProt Q92800); test: Inhibition of EZH1 (unknown origin) by HMT assay
# T2 sequence (Q92800 whole entry): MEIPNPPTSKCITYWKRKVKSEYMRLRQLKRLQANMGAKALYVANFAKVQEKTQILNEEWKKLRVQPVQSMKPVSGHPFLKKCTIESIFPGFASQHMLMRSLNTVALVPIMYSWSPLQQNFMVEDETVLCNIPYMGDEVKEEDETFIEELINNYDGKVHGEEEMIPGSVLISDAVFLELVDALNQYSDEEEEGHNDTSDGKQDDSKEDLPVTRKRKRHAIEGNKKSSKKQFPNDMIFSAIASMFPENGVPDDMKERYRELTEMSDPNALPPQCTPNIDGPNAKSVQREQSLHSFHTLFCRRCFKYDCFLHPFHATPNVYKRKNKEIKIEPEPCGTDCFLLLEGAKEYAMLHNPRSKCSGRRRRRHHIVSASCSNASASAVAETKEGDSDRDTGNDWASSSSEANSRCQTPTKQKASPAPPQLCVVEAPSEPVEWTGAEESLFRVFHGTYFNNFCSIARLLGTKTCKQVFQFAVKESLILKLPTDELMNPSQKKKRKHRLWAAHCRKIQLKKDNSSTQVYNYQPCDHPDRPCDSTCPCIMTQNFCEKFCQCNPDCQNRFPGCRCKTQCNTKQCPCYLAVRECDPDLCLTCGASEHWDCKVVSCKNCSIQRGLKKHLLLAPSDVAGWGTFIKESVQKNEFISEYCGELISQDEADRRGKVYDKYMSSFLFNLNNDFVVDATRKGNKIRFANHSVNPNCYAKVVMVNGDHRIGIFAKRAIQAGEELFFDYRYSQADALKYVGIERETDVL
# [4] = biological target: T3, Histone-lysine N-methyltransferase EHMT2 (Homo sapiens, UniProt Q96KQ7); test: Inhibition of G9a (unknown origin) by HMT assay
# T3 sequence (Q96KQ7 whole entry): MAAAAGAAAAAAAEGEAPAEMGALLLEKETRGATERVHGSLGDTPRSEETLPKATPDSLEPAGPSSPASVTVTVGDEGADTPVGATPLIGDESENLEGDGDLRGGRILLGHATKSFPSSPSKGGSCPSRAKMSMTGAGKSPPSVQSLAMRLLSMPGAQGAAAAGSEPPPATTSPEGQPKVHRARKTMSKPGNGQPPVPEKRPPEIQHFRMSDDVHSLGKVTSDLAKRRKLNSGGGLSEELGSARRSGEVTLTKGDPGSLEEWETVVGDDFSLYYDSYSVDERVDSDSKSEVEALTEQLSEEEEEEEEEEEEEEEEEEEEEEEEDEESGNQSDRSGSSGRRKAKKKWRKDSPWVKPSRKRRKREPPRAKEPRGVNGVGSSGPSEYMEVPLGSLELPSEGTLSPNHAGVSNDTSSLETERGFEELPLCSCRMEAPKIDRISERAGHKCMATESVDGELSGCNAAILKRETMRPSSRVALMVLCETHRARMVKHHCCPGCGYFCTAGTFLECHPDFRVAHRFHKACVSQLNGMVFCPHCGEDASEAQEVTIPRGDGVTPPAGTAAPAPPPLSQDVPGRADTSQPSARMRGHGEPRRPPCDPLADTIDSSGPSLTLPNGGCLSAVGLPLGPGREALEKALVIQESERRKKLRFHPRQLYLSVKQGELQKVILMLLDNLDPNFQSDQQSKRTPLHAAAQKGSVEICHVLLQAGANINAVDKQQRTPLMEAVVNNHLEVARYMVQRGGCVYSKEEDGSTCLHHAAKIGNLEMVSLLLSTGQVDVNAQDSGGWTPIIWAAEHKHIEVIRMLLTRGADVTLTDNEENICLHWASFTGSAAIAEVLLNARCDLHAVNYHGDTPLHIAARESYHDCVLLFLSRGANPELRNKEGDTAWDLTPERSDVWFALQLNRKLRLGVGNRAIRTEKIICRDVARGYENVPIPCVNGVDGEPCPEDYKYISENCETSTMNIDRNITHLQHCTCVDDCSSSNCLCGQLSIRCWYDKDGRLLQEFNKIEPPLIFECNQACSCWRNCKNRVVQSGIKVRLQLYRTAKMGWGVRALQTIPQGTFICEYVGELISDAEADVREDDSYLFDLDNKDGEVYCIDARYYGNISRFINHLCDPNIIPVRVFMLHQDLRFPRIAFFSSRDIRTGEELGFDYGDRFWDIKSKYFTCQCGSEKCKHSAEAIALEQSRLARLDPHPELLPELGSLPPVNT
# Chain of Histone-lysine N-methyltransferase EZH2 (Q15910 whole entry, one chain of several): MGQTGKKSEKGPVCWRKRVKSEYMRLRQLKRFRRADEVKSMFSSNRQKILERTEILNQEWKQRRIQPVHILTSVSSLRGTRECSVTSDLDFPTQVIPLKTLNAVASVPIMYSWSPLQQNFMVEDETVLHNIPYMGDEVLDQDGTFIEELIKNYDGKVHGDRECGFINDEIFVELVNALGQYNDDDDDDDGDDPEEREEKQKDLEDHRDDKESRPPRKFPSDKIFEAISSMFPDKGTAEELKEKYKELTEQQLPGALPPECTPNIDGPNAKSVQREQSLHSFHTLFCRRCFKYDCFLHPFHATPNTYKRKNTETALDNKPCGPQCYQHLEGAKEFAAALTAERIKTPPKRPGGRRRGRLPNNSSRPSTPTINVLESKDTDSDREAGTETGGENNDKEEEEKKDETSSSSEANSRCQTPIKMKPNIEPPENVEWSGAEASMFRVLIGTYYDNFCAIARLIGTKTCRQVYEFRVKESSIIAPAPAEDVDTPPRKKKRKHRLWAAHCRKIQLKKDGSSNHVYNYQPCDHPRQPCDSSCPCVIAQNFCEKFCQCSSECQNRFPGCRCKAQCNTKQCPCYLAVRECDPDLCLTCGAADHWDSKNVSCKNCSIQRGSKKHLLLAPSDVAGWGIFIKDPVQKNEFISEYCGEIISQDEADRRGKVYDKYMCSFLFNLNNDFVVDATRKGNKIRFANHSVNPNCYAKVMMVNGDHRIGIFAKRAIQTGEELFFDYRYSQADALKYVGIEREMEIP
structure (smiles),measurement,setting,value
Nc1ncnc2c1ncn2[C@@H]1O[C@H](CSCC[C@H](N)C(=O)NCc2cc(-c3ccccc3)[nH]n2)[C@@H](O)[C@H]1O,IC50,[1],9.5 µM
same,IC50,[2],0.27 µM
same,IC50,[3],2.1 µM
same,IC50,[4],> 100 µM
